Assay [1] concerns DRG explants from STZ rats. Kind of assay: Neurite outgrowth from dorsal root ganglia explants from STZ rats. Type of assay: cell-based, rat.
Another assay has as its system rat cortical neurons. Kind of assay: Neurite network length of rat cortical primary neurons under high glucose. Type of assay: cell-based. As to conditions: 45 mmol/L glucose, 24 hours, MAP-2 staining. As to the method:
Rat cortical neurons are cultured as described by Singer et al.. Briefly, pregnant female rats of 15 days gestation are killed by cervical dislocation (rats Wistar) and the foetuses are removed from the uterus. The cortex is then removed and placed in ice-cold medium of Leibovitz (L15) containing 2% of Penicillin 10.000 U/mL and Streptomycin 10 mg/mL and 1% of bovine serum albumin (BSA). Cortices are dissociated by trypsin for 20 min at 37° C. (0.05%). The reaction is stopped by the addition of Dulbecco's modified Eagle's medium (DMEM) containing DNasel grade II and 10% of foetal calf serum (FCS). Cells are then mechanically dissociated by 3 serial passages through a 10 mL pipette and centrifuged at 515×g for 10 min at +4° C. The supernatant is discarded and the pellet of cells is re-suspended in a defined culture medium consisting of Neurobasal supplemented with B27 (2%), L-glutamine (0.2 mM), 2% of PS solution and 10 ng/mL of BDNF. Viable cells are counted in a Neubauer cytometer using the trypan blue exclusion test. The cells are seeded at a density of 30 000 cells/well in 96 well-plates (wells were pre-coated with poly-L-lysine (10 μg/mL)) and were cultured at +37° C. in a humidified air (95%)/CO2 (5%) atmosphere.
After 10 days of culture, cells are incubated with drugs and their combinations. After 1 hour, medium glucose concentration is raised to 45 mmol/L glucose in defined medium without BDNF but together with tested compound. Cortical neurons are so cultured for 24 hours. BDNF (10 ng/mL) is used as a positive (neuroprotective) control. Three independent cultures were performed per condition, 6 wells per condition.
After 24 hours of culture in high glucose conditions, the supernatant is taken off and the cortical neurons are fixed by a cold solution of ethanol (95%) and acetic acid (5%) for 5 min. After permeabilization with 0.1% of saponin, cells are blocked for 2 hours with PBS containing 1% foetal calf serum. Then, cells are incubated with monoclonal antibody anti microtubule-associated-protein 2 (MAP-2; Sigma). This antibody stains specifically cell bodies and neurites of neurons. […] Nuclei of neurons are labelled by a fluorescent marker (Hoechst solution, Sigma).
Per well, 10 pictures are taken using InCell Analyzer™ 1000 (GE Healthcare) with 20× magnification. All pictures are taken in the same conditions. Analysis of the neurite network is done using Developer software (GE Healthcare) in order to assess the total length of neurite network.

Assay [2] relates to sensory neurons and Schwann cells co-culture. In words: Myelination in co-culture of sensory neurons and Schwann cells under high glucose (MBP expression). As to conditions: 45 mmol/L glucose, 50 μg/mL ascorbic acid, MBP staining, 5, 9, 10, 11 and 13 days. Format: cell-based, rat. The arrangement: key: +: significant improvement in length of myelinated axons when compared to non-treated conditions as assessed by MBP expression. The procedure:
A model of co-culture was used as an in vitro model of diabetes. This model of myelination consists in co-culturing sensory neurons and Schwann cells from Wistar rats dissociated dorsal root ganglia (DRG).
The aim of this study is to assess the effect of tested compounds and compound combinations on myelination process under high glucose conditions mimicking diabetes. The effect of the tested compounds on myelination, either in high glucose concentration or not, is assessed by evaluating Myelin Basic Protein (MBP) expression in presence of ascorbic acid.
Fifteen days gestation pregnant female rats are killed by cervical dislocation. The embryos are removed from the uterus and are at similar foetal stage of development.
Rat DRG are cultured as previously described by Cosgaya et al. and Rangaraju et al..
Each embryo is dispatched on numerating petri dish (35 mm of diameter). DRG of each embryo is collected, placed in ice-cold medium of Leibovitz (L15, Invitrogen). At the end of the dissection, DRG of TGM are pooled and dissociated by trypsinization (trypsin EDTA, 0.05%; Invitrogen) for 20 min at 37° C. The reaction is stopped by addition of DMEM containing 10% of foetal bovine serum (FBS) in the presence of DNAase I (Roche). The suspension is triturated with a 10 mL pipette. Cells are then centrifuged at 350×g for 10 min at room temperature. The pellet of dissociated cells is resuspended in neurobasal medium (Invitrogen) containing 2% of B27 (Invitrogen), 1% of penicillin-streptomycin (Invitrogen), 1% de L glutamine and 50 ng/mL NGF (Sigma). This medium is the neuronal medium. Viable cells are counted in a Neubauer cytometer using the trypan blue exclusion test (Sigma) and seeded on the basis of 10 000 cells per well in 96 well-plates (Greiner) treated with poly-L-lysine. The plates are maintained at 37° C. in a humidified incubator, in an atmosphere of air (95%)-CO2 (5%). Half of the standard neuronal culture medium is changed every other day. The cultures are maintained in standard neurobasal medium for 7 days to allow Schwann cells to populate the sensory neuron neurites. On day 7, the cultures are fed with standard neuronal medium supplemented or not with 50 μg/mL ascorbic acid in order to initiate basal lamina formation and myelination.
On Day 7, the Following Tested Compounds (Alone or in Combination) Listed in Table 5 are added in the medium with 50 μg/mL ascorbic acid. Basal glucose in culture medium is 25 mmol/L, which is necessary for DRG neuron survival. To produce a hyperglycemic insult, 20 mmol/L additional glucose (total 45 mmol/L glucose) is added to the media for the period specified.
The tested compounds are incubated for 5 different times: 5, 9, 10, 11 and 13 days.
Three separate and independent cultures of DRG are done. These conditions are assessed in presence of ascorbic acid, 6 wells per condition. The solution ready to use of all tested compounds are extemporaneously prepared from a stock solution, stored at −20° C. This solution is prepared once a week. Half of the standard neuronal medium supplemented with tested compounds, ascorbic acid (each at the concentration 1×) and glucose are changed every other day.
After 5, 9, 10, 11 and 13 days of incubation, cells are fixed by a cold solution of ethanol (95%) and acetic acid (5%) for 10 min. The cells are permeabilized and blocked with PBS containing 0.1% saponin and 10% goat serum for 15 min. Then, the cells are incubated with a specific marker of myelin: polyclonal antibody anti-myelin basic protein (MBP) antibody (Sigma 118K0431).
Nuclei of neurons are labelled by a fluorescent marker (Hoechst solution, SIGMA ref B1155).
Per well, 20 pictures are taken using InCell Analyzer™ 1000 (GE Healthcare) with 20× magnification. All images are taken in the same conditions. Analysis of total length of myelinated axons was automatically done (length and area around axons) using
Developer software (GE Healthcare). All values will be expressed as mean+/−s.e.mean. […]

Where [3] appears, read: spinal cord explants from diabetic rats cultured 24-48-72 hours with compound.

Like-named read-outs stand apart in the source and are kept apart here.

The values that follow come from US20170049777A1, “COMPOSITIONS, METHODS AND USES FOR THE TREATMENT OF DIABETIC NEUROPATHIES” (Pharnext, priority 2014, published 2017).

Take `CC(=O)NCCCS(=O)(=O)O` [acamprosate]: the “protecting DRG from apoptosis and/or improving neurite outgrowth” value (shortened to “protecting DRG”) in assay [1] is “particularly efficient”. Besides, in assay [1] (setting [3]), the “Protection of neurite network, DRG explants from STZ rats” value (“Protection … from STZ rats” below) was “+”. In addition, in the assay on rat cortical neurons, the “Protection of neurite network, rat cortical primary cell culture” value is “+”. The Myelinated axon length entry in assay [2] is “+”.
With `NCC(CC(=O)O)c1ccc(Cl)cc1` (stereo not drawn) [baclofen], in assay [1], the “Protection … from STZ rats” value is “+” and the “protecting DRG” value was “particularly efficient”. The “Protection of neurite network, rat cortical primary cell culture” value in the assay on rat cortical neurons was “+”. The Myelinated axon length entry in assay [2] is given as “+”.
`CCN(CC)CCOCCOC(=O)C1(c2ccccc2)CCCC1` [carbetapentane]: the “protecting DRG” value in assay [1] is reported as “particularly efficient”. Besides, the “Protection … from STZ rats” value in assay [1] (setting [3]) is on record as “+”. Besides, the “Protection of neurite network, rat cortical primary cell culture” value with rat cortical neurons was “+”. For the same molecule, the Myelinated axon length entry in assay [2] is on record as “+”.
Take `CN/C(=N/CCSCc1nc[nH]c1C)NC#N` [cimetidine]: the “protecting DRG” value in assay [1] is recorded as “particularly efficient”. Besides, the “Protection … from STZ rats” value in assay [1] (setting [3]) is on record as “+”. In addition, in the assay on rat cortical neurons, the “Protection of neurite network, rat cortical primary cell culture” value is listed as “+”. Moreover, the Myelinated axon length entry in assay [2] was “+”.
`C[C@@H](NCCCc1cccc(C(F)(F)F)c1)c1cccc2ccccc12` [cinacalcet]: the “protecting DRG” value in assay [1] is “particularly efficient”. The “Protection … from STZ rats” value in assay [1] (setting [3]) is reported as “+”. In addition, in the assay with rat cortical neurons, the “Protection of neurite network, rat cortical primary cell culture” value is “+”. Besides, the Myelinated axon length entry in assay [2] is recorded as “+”.
Turning to `CN(C)CC[C@@H](c1ccc(Br)cc1)c1ccccn1` [dexbrompheniramine], in assay [1], the “protecting DRG” value is “particularly efficient”. The “Protection … from STZ rats” value in assay [1] (setting [3]) is “+”. Further, the “Protection of neurite network, rat cortical primary cell culture” value in the assay with rat cortical neurons is “+”. Also, the Myelinated axon length entry in assay [2] is recorded as “+”.
Take `CCN(CC)C(=O)N1CCN(C)CC1` [diethylcarbamazine]: in assay [1], the “protecting DRG” value is on record as “particularly efficient”. Also, in assay [1] (setting [3]), the “Protection … from STZ rats” value is on record as “+”. The “Protection of neurite network, rat cortical primary cell culture” value with rat cortical neurons is reported as “+”. For the same molecule, the Myelinated axon length entry in assay [2] is listed as “+”.
As to `CC(C(O)c1ccc(O)cc1)N1CCC(Cc2ccccc2)CC1` (stereo not drawn) [ifenprodil], the “protecting DRG” value in assay [1] is “particularly efficient”. For the same molecule, the “Protection … from STZ rats” value in assay [1] (setting [3]) is “+”. Moreover, the “Protection of neurite network, rat cortical primary cell culture” value with rat cortical neurons is given as “+”. Also, the Myelinated axon length result in assay [2] is “+”.
For the molecule `C[C@@H]1CC(=O)NN=C1c1ccc(NN=C(C#N)C#N)cc1` [levosimendan], the “protecting DRG” value in assay [1] is “particularly efficient”. Also, the “Protection … from STZ rats” value in assay [1] (setting [3]) is on record as “+”. For the same molecule, the “Protection of neurite network, rat cortical primary cell culture” value in the assay with rat cortical neurons was “+”. Moreover, in assay [2], the Myelinated axon length entry was “+”.
Consider `Cc1cccc(C)c1OCC(C)N` (stereo not drawn) [mexiletine], for which, in assay [1], the “protecting DRG” value was “particularly efficient”. Also, the “Protection … from STZ rats” value in assay [1] (setting [3]) is “+”. Besides, the “Protection of neurite network, rat cortical primary cell culture” value in the assay with rat cortical neurons was “+”. For the same molecule, the Myelinated axon length entry in assay [2] is “+”.
For `CO[C@]12C[C@@H](COC(=O)c3cncc(Br)c3)CN(C)[C@@H]1Cc1cn(C)c3cccc2c13` [nicergoline], in assay [1], the “protecting DRG” value is “particularly efficient”. In addition, the “Protection … from STZ rats” value in assay [1] (setting [3]) was “+”. Besides, the “Protection of neurite network, rat cortical primary cell culture” value in the assay on rat cortical neurons is “+”. In addition, the Myelinated axon length result in assay [2] was “+”.
`C1COC(NC(C2CC2)C2CC2)=N1` [rilmenidine]: in assay [1], the “protecting DRG” value is listed as “particularly efficient”. The “Protection … from STZ rats” value in assay [1] (setting [3]) was “+”. For the same molecule, the “Protection of neurite network, rat cortical primary cell culture” value with rat cortical neurons is “+”. The Myelinated axon length entry in assay [2] is listed as “+”.
Turning to `Cc1ccc(C(=O)C(C)CN2CCCCC2)cc1` (stereo not drawn) [tolperisone], the “protecting DRG” value in assay [1] was “particularly efficient”. Also, in assay [1] (setting [3]), the “Protection … from STZ rats” value is “+”. Further, in the assay on rat cortical neurons, the “Protection of neurite network, rat cortical primary cell culture” value is reported as “+”. Moreover, the Myelinated axon length entry in assay [2] is given as “+”.
On to `Cc1cccc(Nc2ccncc2S(=O)(=O)NC(=O)NC(C)C)c1` [torasemide], for which, in assay [1], the “protecting DRG” value is reported as “particularly efficient”. The “Protection … from STZ rats” value in assay [1] (setting [3]) is “+”. Also, in the assay with rat cortical neurons, the “Protection of neurite network, rat cortical primary cell culture” value was “+”. Further, the Myelinated axon length entry in assay [2] is given as “+”.
Turning to `Nc1nc(N)c2nc(-c3ccccc3)c(N)nc2n1` [triamterene], the “protecting DRG” value in assay [1] was “particularly efficient”. Also, the “Protection … from STZ rats” value in assay [1] (setting [3]) is recorded as “+”. For the same molecule, the “Protection of neurite network, rat cortical primary cell culture” value with rat cortical neurons is listed as “+”. In addition, the Myelinated axon length entry in assay [2] is on record as “+”.
